Laboratory results reported in US10870647B2, “Imidazopyridine derivative, method for preparing same, and pharmaceutical composition containing same as active ingredient for preventing or treating cancer” (DAEGU-GYEONGBUK MEDICAL INNOVATION FOUNDATION, priority 2016, dated 2020).

What was measured:
Assay in all cases: Kinase selectivity, scanMAX Kinase assay panel (DiscoverX), % control at 1 uM
Assay type in all cases: binding
[1] = target: T1, scanMAX Kinase assay panel (Homo sapiens, UniProt Q6XUX3); conditions: RIPK5; 1 uM; read-out: Percent Control (%)
T1 construct: purchased DiscoverX
T1 sequence (Q6XUX3 1-929): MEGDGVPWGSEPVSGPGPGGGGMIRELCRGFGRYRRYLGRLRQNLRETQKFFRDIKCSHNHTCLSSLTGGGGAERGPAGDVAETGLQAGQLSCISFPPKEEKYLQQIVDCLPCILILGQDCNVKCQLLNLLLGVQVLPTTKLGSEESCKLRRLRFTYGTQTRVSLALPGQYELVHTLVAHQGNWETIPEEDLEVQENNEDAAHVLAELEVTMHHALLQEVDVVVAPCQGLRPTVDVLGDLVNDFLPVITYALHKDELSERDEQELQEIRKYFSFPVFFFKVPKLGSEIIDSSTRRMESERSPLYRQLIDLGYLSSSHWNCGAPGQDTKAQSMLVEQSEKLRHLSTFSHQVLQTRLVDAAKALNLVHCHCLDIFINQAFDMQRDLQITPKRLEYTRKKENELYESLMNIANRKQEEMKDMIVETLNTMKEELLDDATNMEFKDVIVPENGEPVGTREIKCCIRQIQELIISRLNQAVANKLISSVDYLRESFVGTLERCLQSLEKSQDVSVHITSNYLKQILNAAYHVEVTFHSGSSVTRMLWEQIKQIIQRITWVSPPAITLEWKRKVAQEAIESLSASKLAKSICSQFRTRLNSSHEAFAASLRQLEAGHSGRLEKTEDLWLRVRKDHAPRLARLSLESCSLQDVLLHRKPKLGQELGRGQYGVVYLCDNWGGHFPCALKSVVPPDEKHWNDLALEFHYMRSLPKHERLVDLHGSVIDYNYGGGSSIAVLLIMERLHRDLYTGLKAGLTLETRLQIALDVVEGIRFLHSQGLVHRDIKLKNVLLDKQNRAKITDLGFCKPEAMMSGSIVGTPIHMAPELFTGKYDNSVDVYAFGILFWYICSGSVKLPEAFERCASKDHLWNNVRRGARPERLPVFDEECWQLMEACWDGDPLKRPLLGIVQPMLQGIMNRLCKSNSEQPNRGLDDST
How it was run: (§1)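 Single-point screen at 1 uM compound in DMSO. Lower % control means stronger inhibition, with the cutoff for activity set at <35%.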

[2] = target: T2, scanMAX Kinase assay panel (Homo sapiens, UniProt Q16288); conditions: TRKC; 1 uM; read-out: Percent Control (%)
T2 construct: purchased DiscoverX
How it was run: as §1

[3] = target: T3, scanMAX Kinase assay panel (Homo sapiens, UniProt Q13627); conditions: DYRK1A; 1 uM; read-out: Percent Control (%)
T3 construct: purchased DiscoverX
How it was run: as §1

[4] = target: T4, scanMAX Kinase assay panel (Homo sapiens, UniProt Q9UL54); conditions: TAOK2; 1 uM; read-out: Percent Control (%)
T4 construct: purchased DiscoverX
T4 sequence (Q9UL54 1-1235): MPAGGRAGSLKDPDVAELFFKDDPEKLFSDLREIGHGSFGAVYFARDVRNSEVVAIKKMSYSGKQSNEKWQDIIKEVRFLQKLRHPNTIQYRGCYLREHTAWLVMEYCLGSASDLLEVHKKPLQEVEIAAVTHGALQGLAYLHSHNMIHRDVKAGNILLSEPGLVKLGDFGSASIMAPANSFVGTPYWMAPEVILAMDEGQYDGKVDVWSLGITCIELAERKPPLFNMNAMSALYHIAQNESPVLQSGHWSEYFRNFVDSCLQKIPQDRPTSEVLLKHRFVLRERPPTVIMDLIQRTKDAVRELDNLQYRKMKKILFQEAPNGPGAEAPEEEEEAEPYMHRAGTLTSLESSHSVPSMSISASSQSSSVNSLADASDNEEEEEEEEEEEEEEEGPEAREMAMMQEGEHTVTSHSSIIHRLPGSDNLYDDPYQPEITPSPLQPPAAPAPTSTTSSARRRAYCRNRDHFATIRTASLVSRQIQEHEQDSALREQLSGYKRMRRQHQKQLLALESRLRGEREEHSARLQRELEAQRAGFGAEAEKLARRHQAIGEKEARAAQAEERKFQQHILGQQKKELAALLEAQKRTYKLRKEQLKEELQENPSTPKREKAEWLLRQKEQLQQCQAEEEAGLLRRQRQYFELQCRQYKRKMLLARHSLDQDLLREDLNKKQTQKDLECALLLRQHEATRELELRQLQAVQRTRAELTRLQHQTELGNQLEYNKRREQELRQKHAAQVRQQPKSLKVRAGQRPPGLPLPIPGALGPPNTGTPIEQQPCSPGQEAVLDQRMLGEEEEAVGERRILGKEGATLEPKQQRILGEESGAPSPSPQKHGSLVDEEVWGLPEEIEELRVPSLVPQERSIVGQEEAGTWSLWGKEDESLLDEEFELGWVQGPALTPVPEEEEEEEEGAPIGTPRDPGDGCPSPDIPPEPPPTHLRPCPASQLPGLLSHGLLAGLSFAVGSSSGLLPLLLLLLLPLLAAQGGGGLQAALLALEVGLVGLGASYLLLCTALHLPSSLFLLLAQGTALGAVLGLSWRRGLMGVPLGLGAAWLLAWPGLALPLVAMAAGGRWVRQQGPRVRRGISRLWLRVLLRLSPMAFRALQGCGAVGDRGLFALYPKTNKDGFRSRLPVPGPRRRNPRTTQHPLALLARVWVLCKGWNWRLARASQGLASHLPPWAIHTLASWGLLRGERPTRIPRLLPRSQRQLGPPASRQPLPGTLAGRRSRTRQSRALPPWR
How it was run: as §1

T2 sequence (Q16288 32-839): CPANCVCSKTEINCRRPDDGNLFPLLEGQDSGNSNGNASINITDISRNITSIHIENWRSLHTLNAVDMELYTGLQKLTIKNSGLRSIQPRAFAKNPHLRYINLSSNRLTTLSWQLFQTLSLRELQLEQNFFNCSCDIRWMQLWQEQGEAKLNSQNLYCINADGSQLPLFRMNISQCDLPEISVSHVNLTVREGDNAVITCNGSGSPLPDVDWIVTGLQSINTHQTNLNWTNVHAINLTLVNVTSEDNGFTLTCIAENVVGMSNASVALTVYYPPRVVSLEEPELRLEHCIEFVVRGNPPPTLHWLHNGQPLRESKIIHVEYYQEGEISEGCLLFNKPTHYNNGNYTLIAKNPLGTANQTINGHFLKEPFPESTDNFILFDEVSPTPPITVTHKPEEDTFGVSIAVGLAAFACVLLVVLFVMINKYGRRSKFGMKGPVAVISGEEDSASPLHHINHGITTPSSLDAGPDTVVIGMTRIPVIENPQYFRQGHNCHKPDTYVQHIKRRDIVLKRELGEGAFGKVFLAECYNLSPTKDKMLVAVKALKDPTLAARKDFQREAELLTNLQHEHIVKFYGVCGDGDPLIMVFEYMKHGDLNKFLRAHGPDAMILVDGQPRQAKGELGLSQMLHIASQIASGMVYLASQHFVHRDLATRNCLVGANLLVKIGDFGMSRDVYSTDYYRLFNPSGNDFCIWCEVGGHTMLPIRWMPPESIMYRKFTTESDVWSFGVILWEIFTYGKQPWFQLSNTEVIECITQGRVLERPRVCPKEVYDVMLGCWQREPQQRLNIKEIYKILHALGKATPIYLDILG

| SMILES | remaining binding at 1 µM [1] [%] | remaining binding at 1 µM [2] [%] | remaining binding at 1 µM [3] [%] | remaining binding at 1 µM [4] [%] |
| --- | --- | --- | --- | --- |
| Cc1ccc(C(=O)Nc2ccc(CN3CCN(C)CC3)c(C(F)(F)F)c2)cc1C#Cc1cnc2c(Nc3cnn(C)c3)cccn12 [Example 1, 4-methyl-3-((8-((1-methyl-1H-pyrazol-4-yl)amino)imidazo[1,2-a]pyridin-3-yl)ethynyl)-N-(4-((4-methylpiperazin-1-yl)methyl)-3-(trifluoromethyl)phenyl)benzamide] | 41 | 0 | 100 | 14 |
| Cc1cn(-c2cc(NC(=O)c3ccc(C)c(C#Cc4cnc5c(Nc6cnn(C)c6)cccn45)c3)cc(C(F)(F)F)c2)cn1 [Example 12, 4-methyl-N-(3-(4-methyl-1H-imidazol-1-yl)-5-(trifluoromethyl)phenyl)-3-((8-((1-methyl-1H-pyrazol-4-yl)amino)imidazo[1,2-a]pyridin-3-yl)ethynyl)benzamide] | 100 | 3 | 97 | 25 |
| Cc1ccc(NC(=O)C2(C(=O)Nc3ccc(F)cc3)CC2)cc1C#Cc1cnc2c(Nc3cnn(C(C)C)c3)cccn12 [Example 78] | 79 | 96 | 100 | 100 |
